According to patent publication US20080085889A1, “Amidomethyl-Substituted 1-(Carboxyalkyl) Cyclopentyl-Carbonylamino-Benzazepine-N-Acetic Acid Compounds, Process and Intermediate Products for Their Preparation and Pharmaceutical Compositions Containing Them” (SOLVAY PHARMACEUTICALS GmbH, priority 2003, published 2008):

What was measured:
[1] = system: formation of ET-1 from Big-ET-1; assay: In vivo inhibition of the Big-ET-1-induced blood pressure increase in anaesthetised rats, i.v. single dose; parameters: species or system Rats (Sprague-Dawley); conditions: 5 min before 0.5 nmol/kg Big-ET-1, negative values indicate inhibition
Method in brief: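 Anaesthetised (Rompun/Ketavet) Sprague-Dawley rats got test substance i.v. via jugular vein, as a rule 10 μmol/kg, or vehicle; 5 min later 0.5 nmol/kg Big-ET-1 infused over 1 min. Carotid pressure recorded every 5 min for 30 min; value is % inhibition versus vehicle of maximum Big-ET-1-induced systolic pressure rise, negative values meaning inhibition.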

[2] = Plasma protein binding, equilibrium dialysis, human plasma; assay type: in vitro ADME; conditions: human plasma (10% for routine testing), 37° C., pH 7.4, 10% plasma (100% for low binders), read-out: % bound (human plasma) (converted)
Protocol: Plasma protein binding of the test substances of Formula I was measured using a validated equilibrium dialysis method. The dialysis cells consisted of two halves separated by a semi-permeable membrane slightly tensioned in between. […] Before being used, the membranes were re-hydrated by soaking in water followed by the dialysis buffer. Plasma (10% for routine testing, and 100% for compounds found to have a low protein binding) was heated to 37° C. and adjusted to pH 7.4 before use. 5 μM test compound solutions (final dimethylsulfoxide concentration 0.5%) were prepared in isotonic phosphate buffer containing rat or human plasma. The plasma-containing solution was on one side of the membrane, and the plasma-free on the other. Incubations were performed overnight (10% plasma assay), or for 2 hours (100% plasma assay) in triplicate. The cells were mounted in a drive unit that rotated the cells and ensured a uniform equilibrium was obtained. The equilibrium was temperature controlled by the drive unit being immersed in a water bath at 37° C. At the end of the equilibration time, the cells were emptied. The solutions for each batch of compounds were combined into two groups (plasma-free and plasma-containing) then cassette analysed by LC-MS/MS using two sets of calibration standards for plasma-free (7 points) and plasma-containing solutions (6 points). The percentage of protein bound compound was calculated as follows: [formula] PC=sample concentration in protein containing side; PF=sample concentration in protein free side;

[3] = target: T1, His6-tagged hSEP ectodomain (Homo sapiens, UniProt Q495T6); assay: In vitro investigation of the hSEP-inhibitory action (fluorescence-quenched Big-ET-1 analogue, HPLC); assay type: biochemical
T1 construct: His6-tagged hSEP ectodomain; His6; purchased Innogenetics, Ghent, Belgium
T1 sequence (Q495T6 49-779 limits assumed): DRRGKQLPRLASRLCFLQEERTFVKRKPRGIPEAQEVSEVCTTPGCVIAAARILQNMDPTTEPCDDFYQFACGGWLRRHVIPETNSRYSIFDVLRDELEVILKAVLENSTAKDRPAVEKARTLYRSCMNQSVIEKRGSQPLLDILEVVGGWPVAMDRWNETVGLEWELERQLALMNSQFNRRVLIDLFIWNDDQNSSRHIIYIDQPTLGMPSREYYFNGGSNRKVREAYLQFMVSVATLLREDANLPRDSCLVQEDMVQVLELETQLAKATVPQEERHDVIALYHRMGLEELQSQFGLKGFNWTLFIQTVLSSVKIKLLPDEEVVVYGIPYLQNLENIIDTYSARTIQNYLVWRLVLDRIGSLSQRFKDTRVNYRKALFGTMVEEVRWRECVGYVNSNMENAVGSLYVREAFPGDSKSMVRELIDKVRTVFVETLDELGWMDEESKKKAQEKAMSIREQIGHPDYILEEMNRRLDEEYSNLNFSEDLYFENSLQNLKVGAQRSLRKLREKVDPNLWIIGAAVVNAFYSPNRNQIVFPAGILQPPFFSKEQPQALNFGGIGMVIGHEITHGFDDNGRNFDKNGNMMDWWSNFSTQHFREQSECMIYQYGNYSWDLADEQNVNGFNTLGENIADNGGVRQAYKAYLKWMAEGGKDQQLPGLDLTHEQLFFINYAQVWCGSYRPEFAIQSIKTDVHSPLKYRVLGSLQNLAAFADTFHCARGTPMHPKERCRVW
Method in brief: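 Performed as for the NEP assay, with HPLC analysis and 10 nM phosphoramidon as the standard inhibitor. IC50 is the compound concentration blocking 50% of hSEP enzymatic activity.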

[4] = Rattus norvegicus, iv, 10 μmol/kg, read-out: % substance-related inhibition of the maximum Big-ET effect on SAP vs. control

| fraction unbound at 5 μM [2] | IC50 [3] | Compound | change in vivo at 10 µmol/kg [1, 4] | % substance-related inhibition of the maximum Big-ET effect on SAP vs. control ([1]; 10 μmol/kg) | change in vivo at 0.3 µmol/kg ([1]; Rattus norvegicus, iv, 0.3 μmol/kg, read-out: % substance-related inhibition of the maximum Big-ET effect on SAP vs. control) |
| --- | --- | --- | --- | --- | --- |
| 0.58 | 7.8 nM | CC(C)NC(=O)CC(CC1(C(=O)N[C@H]2CCc3ccccc3N(CC(=O)O)C2=O)CCCC1)C(=O)O (stereo in doubt) [Example 3, (2″rel1″)-2-{[(3S)-1-({[1-(carboxymethyl)-2-oxo-2,3,4,5-tetrahydro-1H-1-benzazepin-3-yl]amino}-carbonyl)cyclopentyl]methyl}-4-(isopropylamino)-4-oxobutyric acid] | -94% |  |  |
|  |  | {(3S)-3-[({1-[(2″rel1″)-2-ethoxycarbonyl)-4-(isopropylamino)-4-oxobutyl]cyclopentyl}-carbonyl)amino]-2-oxo-2,3,4,5-tetrahydro-1H-1-benzazepin-1-yl}acetic acid [Example 4] |  | −95% |  |
| ~1 | 5 nM | CN(C)CCCN(C)C(=O)CC(CC1(C(=O)NC2CCc3ccccc3N(CC(=O)O)C2=O)CCCC1)C(=O)O (stereo not shown) [Example 64, 2-[(1-{[1-(carboxymethyl)-2-oxo-2,3,4,5-tetrahydro-1H-1-benzazepin-3-yl]carbamoyl}cyclopentyl)methyl]-4-{[3-(dimethylamino)propyl](methyl)amino}-4-oxobutanoic acid] | -108% |  |  |
| 0.34 | 2 nM | CCN(CCCCN)C(=O)CC(CC1(C(=O)NC2CCc3ccccc3N(CC(=O)O)C2=O)CCCC1)C(=O)O [Example 81, (2″rel1″)-4-[(4-aminobutyl)(ethyl)amino]-2-{[1-({[(3S)-1-(carboxymethyl)-2-oxo-2,3,4,5-tetrahydro-1H-1-benzazepin-3-yl]amino}carbonyl)cyclopentyl]methyl}-4-oxobutanoic acid] |  |  | -73% |
